Assay: xn = mol fraction of the nth substance listed

O=C(O)CC(=O)O + CC[n+]1ccn(C)c1.[Cl-]
Conditions	viscosity [mPa·s]
303.15 K, 101.33 kPa, x2 = 0.667	138.9

[Cl][Al]([Cl])[Cl] + CC[n+]1ccn(C)c1.[Cl-]
101 kPa
Conditions	electrical conductivity [S/m]
263 K, frequency 0.1 MHz, x1 = 0.5455	0.14
263 K, frequency 0.1 MHz, x1 = 0.5652	0.13
263 K, frequency 0.1 MHz, x1 = 0.5833	0.57
263 K, frequency 0.1 MHz, x1 = 0.6	0.36
263 K, frequency 0.1 MHz, x1 = 0.6296	0.35
273 K, frequency 0.1 MHz, x1 = 0.5455	0.59
273 K, frequency 0.1 MHz, x1 = 0.5652	0.92
273 K, frequency 0.1 MHz, x1 = 0.5833	0.84
273 K, frequency 0.1 MHz, x1 = 0.6	0.53
273 K, frequency 0.1 MHz, x1 = 0.6296	0.52
283 K, frequency 0.1 MHz, x1 = 0.5238	1.24
283 K, frequency 0.1 MHz, x1 = 0.5455	1.34
283 K, frequency 0.1 MHz, x1 = 0.5652	1.33
283 K, frequency 0.1 MHz, x1 = 0.5833	1.13
283 K, frequency 0.1 MHz, x1 = 0.6	0.73
283 K, frequency 0.1 MHz, x1 = 0.6296	0.73
293 K, frequency 0.1 MHz, x1 = 0.5238	1.58
293 K, frequency 0.1 MHz, x1 = 0.5455	1.81
293 K, frequency 0.1 MHz, x1 = 0.5652	1.73
293 K, frequency 0.1 MHz, x1 = 0.6	0.96
293 K, frequency 0.1 MHz, x1 = 0.6296	0.99
303 K, frequency 0.1 MHz, x1 = 0.5238	2.05
303 K, frequency 0.1 MHz, x1 = 0.5455	2.47
303 K, frequency 0.1 MHz, x1 = 0.5652	2.3
303 K, frequency 0.1 MHz, x1 = 0.5833	1.89
303 K, frequency 0.1 MHz, x1 = 0.6	1.25
303 K, frequency 0.1 MHz, x1 = 0.6296	1.29
303.15 K, frequency 0 MHz, x1 = 0.6	1.92
303.15 K, frequency 0 MHz, x1 = 0.63	1.8
303.15 K, frequency 0 MHz, x1 = 0.67	1.64
306.15 K, frequency 1 MHz, x2 = 0.556	1.46
306.15 K, frequency 1 MHz, x2 = 0.67	0.409
313 K, frequency 0.1 MHz, x1 = 0.5238	2.58
313 K, frequency 0.1 MHz, x1 = 0.5652	2.95
313 K, frequency 0.1 MHz, x1 = 0.5833	2.34
313 K, frequency 0.1 MHz, x1 = 0.6	1.64
313 K, frequency 0.1 MHz, x1 = 0.6296	1.52
323 K, frequency 0.1 MHz, x1 = 0.5238	3.35
323 K, frequency 0.1 MHz, x1 = 0.5455	3.65
323 K, frequency 0.1 MHz, x1 = 0.5652	3.37
323 K, frequency 0.1 MHz, x1 = 0.5833	2.85
323 K, frequency 0.1 MHz, x1 = 0.6	2.18
323 K, frequency 0.1 MHz, x1 = 0.6296	1.83
333 K, frequency 0.1 MHz, x1 = 0.5238	4.09
333 K, frequency 0.1 MHz, x1 = 0.5455	3.96
333 K, frequency 0.1 MHz, x1 = 0.5652	4.11
333 K, frequency 0.1 MHz, x1 = 0.5833	3.04
333 K, frequency 0.1 MHz, x1 = 0.6	2.4
333 K, frequency 0.1 MHz, x1 = 0.6296	2.16
342.1 K, frequency 0.1 MHz, x1 = 0.5238	5.15
343 K, frequency 0.1 MHz, x1 = 0.5455	4.63
343 K, frequency 0.1 MHz, x1 = 0.5652	4.72
343 K, frequency 0.1 MHz, x1 = 0.5833	3.21
343 K, frequency 0.1 MHz, x1 = 0.6	2.82
343 K, frequency 0.1 MHz, x1 = 0.6296	2.49
352.1 K, frequency 0.1 MHz, x1 = 0.5238	6.3
353 K, frequency 0.1 MHz, x1 = 0.5652	5.34
353 K, frequency 0.1 MHz, x1 = 0.5833	4.2
353 K, frequency 0.1 MHz, x1 = 0.6	3.2
353 K, frequency 0.1 MHz, x1 = 0.6296	2.95
362.1 K, frequency 0.1 MHz, x1 = 0.6	3.69
363 K, frequency 0.1 MHz, x1 = 0.5238	6.4
363 K, frequency 0.1 MHz, x1 = 0.5455	5.69
363 K, frequency 0.1 MHz, x1 = 0.5652	5.87
363 K, frequency 0.1 MHz, x1 = 0.5833	4.33
363 K, frequency 0.1 MHz, x1 = 0.6296	3.3

101.3 kPa
Conditions	electrical conductivity [S/m]
270.1 K, x2 = 0.3333	0.533
270.4 K, x2 = 0.4348	0.75
270.6 K, x2 = 0.5556	0.36
271.1 K, x2 = 0.3636	0.6
271.1 K, x2 = 0.4	0.702
275.6 K, x2 = 0.4	0.822
275.6 K, x2 = 0.5263	0.832
275.6 K, x2 = 0.5556	0.471
276.1 K, x2 = 0.3333	0.711
276.1 K, x2 = 0.4348	0.901
277.1 K, x2 = 0.3636	0.798
280.6 K, x2 = 0.4348	1.01
281.1 K, x2 = 0.3636	0.946
281.1 K, x2 = 0.4	1.06
281.1 K, x2 = 0.4762	1.18
281.1 K, x2 = 0.5	1.28
281.1 K, x2 = 0.5263	1.03
281.1 K, x2 = 0.5556	0.595
282.1 K, x2 = 0.3333	0.896
288.15 K, x2 = 0.4348	1.34
290.15 K, x2 = 0.3636	1.33
290.15 K, x2 = 0.4762	1.59
290.65 K, x2 = 0.4	1.4
290.65 K, x2 = 0.5263	1.4
290.65 K, x2 = 0.5556	0.87
291.15 K, x2 = 0.5	1.83
292.15 K, x2 = 0.3333	1.23
303.15 K, x2 = 0.3333	1.65
303.15 K, x2 = 0.3636	1.82
303.15 K, x2 = 0.5263	1.93
303.15 K, x2 = 0.5556	1.33
304.15 K, x2 = 0.4762	2.42
304.15 K, x2 = 0.5	2.57
305.15 K, x2 = 0.4	2.03
305.15 K, x2 = 0.4348	2.24
309.15 K, x2 = 0.5556	1.57
312.65 K, x2 = 0.5263	2.46
314.15 K, x2 = 0.4348	2.69
314.65 K, x2 = 0.4	2.48
315.65 K, x2 = 0.3636	2.3
316.15 K, x2 = 0.3333	2.12
317.65 K, x2 = 0.4762	3.2
317.65 K, x2 = 0.5	3.3
320.15 K, x2 = 0.5556	2.21
321.15 K, x2 = 0.5263	3.01
323.15 K, x2 = 0.3333	2.46
323.15 K, x2 = 0.3636	2.64
323.15 K, x2 = 0.4	2.92
324.15 K, x2 = 0.4348	3.2
324.15 K, x2 = 0.4762	3.63
324.15 K, x2 = 0.5	3.79
330.15 K, x2 = 0.5556	2.71
331.15 K, x2 = 0.4	3.4
331.15 K, x2 = 0.5263	3.65
332.15 K, x2 = 0.4348	3.7
332.15 K, x2 = 0.4762	4.14
332.65 K, x2 = 0.5	4.37
333.15 K, x2 = 0.3333	2.93
334.15 K, x2 = 0.3636	3.18
341.15 K, x2 = 0.4348	4.28
342.15 K, x2 = 0.4	4.02
342.15 K, x2 = 0.4762	4.9
342.15 K, x2 = 0.5	5.03
342.15 K, x2 = 0.5263	4.39
343.15 K, x2 = 0.3333	3.38
343.15 K, x2 = 0.3636	3.64
344.15 K, x2 = 0.5556	3.63
350.65 K, x2 = 0.4	4.54
351.15 K, x2 = 0.4348	4.88
352.15 K, x2 = 0.5263	5.04
353.15 K, x2 = 0.3333	3.88
353.15 K, x2 = 0.3636	4.2
353.15 K, x2 = 0.4762	5.63
353.15 K, x2 = 0.5	5.79
353.15 K, x2 = 0.5556	4.27
361.15 K, x2 = 0.4	5.18
361.15 K, x2 = 0.4348	5.54
361.15 K, x2 = 0.4762	6.35
361.15 K, x2 = 0.5	6.43
363.15 K, x2 = 0.3333	4.45
363.15 K, x2 = 0.3636	4.8
363.15 K, x2 = 0.5263	5.91
364.15 K, x2 = 0.5556	5.09
370.15 K, x2 = 0.3333	4.82
370.15 K, x2 = 0.3636	5.19
371.15 K, x2 = 0.4	5.84
371.15 K, x2 = 0.4348	6.23
371.15 K, x2 = 0.4762	7.02
371.15 K, x2 = 0.5	7.19
372.15 K, x2 = 0.5263	6.56
374.15 K, x2 = 0.5556	5.89
